Results as given in US20040259926A1, “3-Aryloxy and 3-heteroaryloxy substituted benzo[b]thiophenes as therapeutic agents” (priority 2003, published 2004).

Molecular target: T1, PI3Kγ (recombinant p101/p110γ protein) (Homo sapiens, UniProt P48736)
T1 construct: HA; made in house; host or cells: Spodoptera frugiperda (Sf9) cells, baculovirus co-infection
Assay: PI3Kγ In Vitro Kinase Assay
Format: biochemical
Settings: purified recombinant p101/p110γ with G protein β1/γ2 subunits; 20 μM ATP, [γ-32P-ATP]; 25 μM PIP2 lipid micelles; 20 minutes at room temperature
Protocol: Spodtera frugiperda cells, grown in ESF921 media, were coinfected with baculovirus expressing a glu-tagged […] and baculovirus expressing an HA-tagged p110γ, at a 3:1 ratio of p101 baculovirus to p110γ baculovirus. Sf9 cells were grown to 1×10^7 total cells/mL in 10 L bioreactors and harvested 48-72 hours post infection. Samples of infected cells were then tested for expression of p101/p110γ PI3 kinase by immunoprecipitation and Western Blot analysis methods (see below).
To purify PI3Kγ, 4 volumes of room temperature hypotonic lysis buffer (1 mM MgCl2, 1 mM DTT, 5 mM EGTA, 1 mM Pefabloc, 0.5 μM aprotinin, 5 μM leupeptin, 2 μM pepstatin, 5 μM E64, pH 8) per gram of cell paste, was poured onto frozen cell pellets with stirring, then lysed in a nitrogen “bomb” at 400 psi (599 HC T316, Parr Instrument Co, Moline, Ill.). NaCl was added to 150 mM, and sodium cholate was added to 1% and mixed for another 45 minutes. The lysates were clarified by centrifugation for 25 minutes at 14,000 rpm. The lysates were then loaded over anti-glu-linked Protein-G Sepaharose beads (Covance Research Products, Richmond, Calif.) using 20 mL resin/50 g cell paste. The column was washed with 15 volumes of wash buffer (1 mM DTT, 0.2 mM EGTA, 1 mM Pefabloc, 0.5 μM aprotinin, 5 μM leupeptin, 2 μM pepstatin, 5 μM E64, 150 mM NaCl, 1% sodium cholate, pH 8). PI3Kγ was eluted with 6 column volumes of wash buffer that contain 100 μg/mL of a peptide that competes for binding of the glu tag. The column fractions with the eluted protein (determined by taking OD280 readings) were collected and dialyzed in 0.2 mM EGTA, 1 mM DTT, 1 mM Pefabloc, 5 μM leupeptin, 0.5% sodium cholate, 150 mM NaCl, and 50% glycerol, pH 8. The fractions were stored at −80° C. until further use.
Spodtera frugiperda cells were coinfected with baculovirus expressing a glu-tagged G protein β1 and baculovirus expressing a G protein β2 at a 1:1 ratio of glu-tagged G protein β1 baculovirus to G protein β2 baculovirus. Sf9 cells are grown in 10 L bioreactors and harvested 48-72 hours post infection. Samples of infected cells were tested for G protein β1/β2 expression by Western Blot analysis, as described below. Cell lysates were homogenized and loaded onto a column of glu-tagged beads as in Biological Example 1 and competed off the column with a glu peptide and processed as described in Biological Example 1.
The inhibitory properties of the compounds in Table 1 were assayed in an in vitro PI3K assay. In a 96-well polypropylene plate, each well was spotted with 2 μL of 50 times the desired final concentration of compound in DMSO. Purified recombinant p101/p110γ protein (0.03 μg; ˜2.7 nM) and G protein β1/γ2 subunits (0.09 μg; ˜57.7 nM) for each reaction was combined in the assay buffer (30 mM HEPES, 100 mM NaCl, 1 mM EGTA, and 1 mM DTT). ATP and [γ-^32P-ATP] (0.09 μCi) were added to this mixture so that the final ATP concentration in the reaction was 20 μM. Lipid micelles were formed by sonicating phosphatidylinositol-4,5-diphosphate (PIP2), phosphatidylethanolamine (PE), and Na-cholate in the assay buffer for 10 minutes, adding MgCl2 and incubating on ice for 20 minutes, for final concentrations of 25 μM PIP2, 300 μM PE, 0.02% Na-cholate, and 10 mM MgCl2 in the reaction. The reactions were started by adding equal volumes lipid and enzyme mixture in a total volume of 50 μL, allowed to run for 20 minutes at room temperature, and stopped with 100 μL 75 mM H3PO4. The lipid product was transferred to a glass fiber filter plate and washed with 75 mM H3PO4 several times. The presence of radioactive lipid product (PIP3) was measured by adding Wallac Optiphase mix to each well and counting in a Wallac 1450 Trilux plate reader (PerkinElmer Life Sciences Inc., Boston, Mass. 02118). The IC50 for each compound tested is reported in μM in Table 1: […]

T1 sequence (P48736 whole entry, species assumed): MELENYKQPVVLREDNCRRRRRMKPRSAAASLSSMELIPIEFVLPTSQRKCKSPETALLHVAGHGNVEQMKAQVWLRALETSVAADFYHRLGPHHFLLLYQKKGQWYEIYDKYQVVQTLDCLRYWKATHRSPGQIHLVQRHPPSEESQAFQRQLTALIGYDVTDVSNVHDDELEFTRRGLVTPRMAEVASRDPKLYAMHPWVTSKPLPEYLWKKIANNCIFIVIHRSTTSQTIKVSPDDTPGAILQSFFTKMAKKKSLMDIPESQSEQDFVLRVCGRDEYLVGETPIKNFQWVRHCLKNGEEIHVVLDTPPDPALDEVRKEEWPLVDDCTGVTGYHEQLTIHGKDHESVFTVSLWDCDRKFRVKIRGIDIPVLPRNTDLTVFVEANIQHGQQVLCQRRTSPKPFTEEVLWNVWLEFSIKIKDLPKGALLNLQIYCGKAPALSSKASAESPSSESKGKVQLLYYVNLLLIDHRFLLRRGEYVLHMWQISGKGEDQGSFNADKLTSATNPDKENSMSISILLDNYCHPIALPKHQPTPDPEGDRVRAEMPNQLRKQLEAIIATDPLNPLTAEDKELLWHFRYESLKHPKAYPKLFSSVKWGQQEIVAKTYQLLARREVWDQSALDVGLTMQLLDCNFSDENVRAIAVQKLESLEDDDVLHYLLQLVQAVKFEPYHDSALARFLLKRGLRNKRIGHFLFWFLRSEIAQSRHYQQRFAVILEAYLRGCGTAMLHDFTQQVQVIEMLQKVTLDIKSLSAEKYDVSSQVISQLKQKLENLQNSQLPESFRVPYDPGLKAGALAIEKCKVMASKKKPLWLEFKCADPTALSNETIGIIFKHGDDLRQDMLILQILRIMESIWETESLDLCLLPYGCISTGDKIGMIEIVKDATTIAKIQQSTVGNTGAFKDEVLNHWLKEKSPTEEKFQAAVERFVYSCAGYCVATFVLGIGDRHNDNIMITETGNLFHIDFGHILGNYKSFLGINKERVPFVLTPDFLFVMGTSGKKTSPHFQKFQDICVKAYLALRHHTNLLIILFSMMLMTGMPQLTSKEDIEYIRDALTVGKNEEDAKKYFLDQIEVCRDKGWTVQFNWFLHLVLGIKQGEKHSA
T1 sequence (Q8WYR1 whole entry partner, species assumed): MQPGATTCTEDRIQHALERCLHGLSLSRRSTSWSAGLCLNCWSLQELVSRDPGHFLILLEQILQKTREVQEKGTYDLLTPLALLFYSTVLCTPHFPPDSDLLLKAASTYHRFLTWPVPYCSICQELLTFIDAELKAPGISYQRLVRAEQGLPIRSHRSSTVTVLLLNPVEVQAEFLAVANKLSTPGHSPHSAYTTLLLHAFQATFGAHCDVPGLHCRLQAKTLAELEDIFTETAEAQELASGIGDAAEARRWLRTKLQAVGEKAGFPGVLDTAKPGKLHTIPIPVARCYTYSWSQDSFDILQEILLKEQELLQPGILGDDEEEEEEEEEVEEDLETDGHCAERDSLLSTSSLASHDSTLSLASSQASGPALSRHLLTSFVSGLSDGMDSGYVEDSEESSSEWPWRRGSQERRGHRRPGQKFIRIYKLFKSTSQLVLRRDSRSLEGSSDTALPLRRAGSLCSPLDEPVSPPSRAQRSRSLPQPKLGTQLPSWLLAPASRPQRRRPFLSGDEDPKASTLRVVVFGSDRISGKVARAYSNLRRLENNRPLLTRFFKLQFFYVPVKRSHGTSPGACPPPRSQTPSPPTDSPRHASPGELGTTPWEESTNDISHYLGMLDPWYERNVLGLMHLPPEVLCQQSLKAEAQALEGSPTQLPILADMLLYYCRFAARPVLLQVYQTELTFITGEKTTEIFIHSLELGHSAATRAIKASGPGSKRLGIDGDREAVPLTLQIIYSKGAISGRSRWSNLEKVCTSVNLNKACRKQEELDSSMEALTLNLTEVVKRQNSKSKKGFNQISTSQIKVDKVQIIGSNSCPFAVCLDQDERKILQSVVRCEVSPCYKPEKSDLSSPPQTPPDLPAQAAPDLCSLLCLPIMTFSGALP

SMILES | IC50 [nM]
COc1cc2c(Oc3ccc(CC4CCCC4)cc3)c(C(=O)Nc3nn[nH]n3)sc2cc1C [Example B.32, 3-(4-Cyclopentylmethyl-phenoxy)-5-methoxy-6-methyl-benzo[b]thiophene-2-carboxylic acid (2H-tetrazol-5-yl)-amide] | 36
COc1cc2c(Oc3ccc(OC4CCC4)cc3)c(C(=O)Nc3nn[nH]n3)sc2cc1C [Example B.33, 3-(4-Cyclobutoxy-phenoxy)-5-methoxy-6-methyl-benzo[b]thiophene-2-carboxylic acid (2H-tetrazol-5-yl)-amide] | 7
COc1cc2c(Oc3cccc(OC4CCCC4)c3)c(C(=O)Nc3nn[nH]n3)sc2cc1C [Example B.34, 3-(3-Cyclopentyloxy-phenoxy)-5-methoxy-6-methyl-benzo[b]thiophene-2-carboxylic acid (2H-tetrazol-5-yl)-amide] | 110
COc1cc2c(Oc3cncnc3N3CCCCC3)c(C(=O)Nc3nn[nH]n3)sc2cc1C [Example B.37, 5-Methoxy-6-methyl-3-(4-piperidin-1-yl-pyrimidin-5-yloxy)-benzo[b]thiophene-2-carboxylic acid (2H-tetrazol-5-yl)-amide] | 89
COc1cc2c(Oc3ccc(Br)cc3)c(C(=O)Nc3nn[nH]n3)sc2cc1C [Example B.38, 3-(4-Bromo-phenoxy)-5-methoxy-6-methyl-benzo[b]thiophene-2-carboxylic acid (2H-tetrazol-5-yl)-amide] | 16
COc1cc2c(Oc3ccc(F)cc3)c(C(=O)Nc3nn[nH]n3)sc2cc1C [Example B.39, 3-(4-Fluoro-phenoxy)-5-methoxy-6-methyl-benzo[b]thiophene-2-carboxylic acid (2H-tetrazol-5-yl)-amide] | 18
COc1cc2c(Oc3ccc(Cl)cc3F)c(C(=O)Nc3nn[nH]n3)sc2cc1C [Example B.40, 3-(4-Chloro-2-fluoro-phenoxy)-5-methoxy-6-methyl-benzo[b]thiophene-2-carboxylic acid (2H-tetrazol-5-yl)-amide] | 22
COc1cc2c(Oc3ccc(Cl)c(F)c3)c(C(=O)Nc3nn[nH]n3)sc2cc1C [Example B.41, 3-(4-Chloro-3-fluoro-phenoxy)-5-methoxy-6-methyl-benzo[b]thiophene-2-carboxylic acid (2H-tetrazol-5-yl)-amide] | 135
COc1cc2c(Oc3cccc(C(F)(F)F)c3)c(C(=O)Nc3nn[nH]n3)sc2cc1C [Example B.42, 5-Methoxy-6-methyl-3-(3-trifluoromethyl-phenoxy)-benzo[b]thiophene-2-carboxylic acid (2H-tetrazol-5-yl)-amide] | 180
COc1cc2c(Oc3ccc([N+](=O)[O-])cc3)c(C(=O)Nc3nn[nH]n3)sc2cc1C [Example B.43, 5-Methoxy-6-methyl-3-(4-nitro-phenoxy)-benzo[b]thiophene-2-carboxylic acid (2H-tetrazol-5-yl)-amide] | 56
COc1cc2c(Oc3ccc(Cl)c(Cl)c3)c(C(=O)Nc3nn[nH]n3)sc2cc1C [Example B.44, 3-(3,4-Dichloro-phenoxy)-5-methoxy-6-methyl-benzo[b]thiophene-2-carboxylic acid (2H-tetrazol-5-yl)-amide] | 165
COc1cc2c(Oc3ccc(OC(F)(F)F)cc3)c(C(=O)Nc3nn[nH]n3)sc2cc1C [Example B.45, 5-Methoxy-6-methyl-3-(4-trifluoromethoxy-phenoxy)-benzo[b]thiophene-2-carboxylic acid (2H-tetrazol-5-yl)-amide] | 17
COc1cc2c(Oc3cccnc3)c(C(=O)Nc3nn[nH]n3)sc2cc1C [Example B.46, 5-Methoxy-6-methyl-3-(pyridin-3-yloxy)-benzo[b]thiophene-2-carboxylic acid (2H-tetrazol-5-yl)-amide] | 120
COc1cc2c(Oc3ccc(S(C)(=O)=O)cc3)c(C(=O)Nc3nn[nH]n3)sc2cc1C [Example B.47, 3-(4-Methanesulfonyl-phenoxy)-5-methoxy-6-methyl-benzo[b]thiophene-2-carboxylic acid (2H-tetrazol-5-yl)-amide] | 58
